The source of these data is patent US5191079A, “Quinolinecarboxylic acid derivatives” (priority 1990, dated 1993).

In this series the test system is bone marrow. The experiment in a line: Micronucleus test, Experiment 7. The format is in vivo, ICR male mice. The settings on record: oral 100 to 3000 mg/kg, mouse bone marrow, 24 hours. How it is done:
9,1-(Methylimino)methano-7-fluoro-8-(2-fluoromethylmorpholino)-5-oxo-5H-thiazolo[3,2-a]quinoline-4-carboxylic acid (compound of Example 3) [the compound (C) of the present invention] was suspended in sterilized distilled water. The suspension was orally administered to ICR male mice (8 weeks age, weighing 30 to 36 g, 3 mice in each group) at a rate of 3000, 1000, 300 or 100 mg/kg body weight of the test compound (C). After 24 hours, these mice were killed and the bone marrow was collected and observed the presence of micronuclei.

Structures are written as SMILES.

`CN1Cc2csc3c(C(=O)O)c(=O)c4cc(F)c(N5CCOC(CF)C5)c1c4n23` (stereo not shown) [Compound (C), 9,1-(Methylimino)methano-7-fluoro-8-(2-fluoromethylmorpholino)-5-oxo-5H-thiazolo[3,2-a]quinoline-4-carboxylic acid]: the micronucleus inducing activity result is “no nucleus inducing activity”.
